Legend:
[1] = test system: NF-κB pathway in THP-1 dual cells; experiment: THP-1 Dual reporter assay, NF-κB pathway (SEAP); assay type: cell-based; conditions: Homo sapiens, THP1-Dual; 18 h stimulation, absorbance at 630 or 655 nm; read-out: THP1 Dual EC50 (μM) NFkB
How it was run: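 Compounds (STING agonists) stimulated THP-1 dual cells for 18 h; the cells carry an ISG54 promoter/ISRE-driven luciferase (IRF) and an IFN-β minimal promoter/NF-κB element-driven SEAP. Luciferase in conditioned medium was read by luminescence immediately; SEAP by absorbance at 630 or 655 nm after 1 or 2 h at 37° C.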

[2] = biological target: human STING (Homo sapiens, UniProt Q86WV6); experiment: Fluorescence Thermal Shift assay (binding to STING); conditions: STING 0.1 mg/mL, SyproOrange, 25 to 99° C.
How it was run: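 Human STING (0.1 mg/mL final) preincubated 20 min with compounds in 50 mM Hepes, 150 mM NaCl, pH 7.5, then SyproOrange added. Thermal unfolding 25–99 °C at 0.033 °C/s continuous ramp monitored by fluorescence.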

[3] = test system: interferon regulatory factor (IRF) pathway in THP-1 dual cells; experiment: THP-1 Dual reporter assay, IRF pathway (luciferase); assay type: cell-based; conditions: Homo sapiens, THP1-Dual; 18 h stimulation, luminescence; read-out: THP1 Dual EC50 (μM) IRF
How it was run: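 After 18 h stimulation with STING agonist, culture medium was sampled. IRF activity was read as luminescence of ISG54/ISRE-driven luciferase right after adding reagent; NF-κB activity as absorbance at 630 or 655 nm of SEAP (IFN-β minimal promoter with NF-κB elements) after 1 or 2 h at 37° C.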

[4] = test system: CT26 murine colon carcinoma allografts; experiment: In vivo anti-tumor efficacy in CT26 allografts; design: species or system female Balb/C mice; conditions: intravenously, once every fifth day on three occasions
Protocol: The efficacy of Example 4, Example 31 and Example 57 was evaluated in established CT26 murine colon carcinoma allografts in female Balb/C mice. Compounds were formulated in 5% ethanol with 10% Captisol in PBS and administered intravenously, once every fifth day on three occasions. The solution was prepared fresh prior to each administration. […] By the end of the study there was one complete response among animals treated at 10 mg/kg of Example 4. […] By the end of the study, on day 43, there was one complete response recorded in group treated at 20 mg/kg of Example 57.

Chain of human STING (Q86WV6 whole entry H232R): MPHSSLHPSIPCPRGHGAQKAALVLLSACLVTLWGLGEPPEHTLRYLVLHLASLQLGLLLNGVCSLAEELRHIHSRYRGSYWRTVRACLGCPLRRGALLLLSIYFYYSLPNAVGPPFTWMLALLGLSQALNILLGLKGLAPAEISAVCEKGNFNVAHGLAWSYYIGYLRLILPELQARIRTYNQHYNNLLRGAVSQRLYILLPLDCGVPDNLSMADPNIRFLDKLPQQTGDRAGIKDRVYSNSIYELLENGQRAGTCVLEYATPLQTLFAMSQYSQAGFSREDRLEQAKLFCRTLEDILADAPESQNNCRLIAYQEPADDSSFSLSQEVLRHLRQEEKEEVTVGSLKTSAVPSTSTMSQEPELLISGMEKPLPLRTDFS

Compound	EC50 [1]	hSTING FTS binding assay (ΔT C. °) [2]	EC50 [3]	anti-tumor efficacy (tumor growth vs control group) ([4]; 7 mg/kg)	anti-tumor efficacy (tumor growth vs control group) ([4]; 15 mg/kg)	anti-tumor efficacy (tumor growth vs control group) ([4]; 30 mg/kg)	complete responses by the end of the study ([4]; 30 mg/kg, day 43)	response of CT26 tumors to treatment [4]	anti-tumor efficacy (tumor growth vs control group) ([4]; 10 mg/kg)	complete responses by the end of the study ([4]; 10 mg/kg)	anti-tumor efficacy (tumor growth vs control group) ([4]; 5 mg/kg)	anti-tumor efficacy (tumor growth vs control group) ([4]; 20 mg/kg)	complete responses by the end of the study ([4]; 20 mg/kg, day 43)
Cc1ccc(N2CCC[C@H](N(Cc3ccnc(C)c3)Cc3cn(C4CC4)c4cc(N5CCC[C@H](O)C5)c(F)cc4c3=O)C2)cn1.Cl [Example 31, 1-cyclopropyl-6-fluoro-7-[(3S)-3-hydroxypiperidin-1-yl]-3-({[(3S)-1-(6-methylpyridin-3-yl)piperidin-3-yl][(2-methylpyridin-4-yl)methyl]amino}methyl)-1,4-dihydroquinolin-4-one hydrochloride]	< 1 µM	+++ (+++=ΔTm ≥20° C.)	< 1 µM	slight tumor growth delay	prominently efficacious	prominently efficacious	two	responded prominently					
COc1cc(CN(Cc2cn(C3CC3)c3cc(F)c(F)cc3c2=O)[C@H]2CCCN(c3ccc(N)nc3)C2)ccn1.Cl [Example 4, 3-({[(3S)-1-(6-Aminopyridin-3-yl)piperidin-3-yl][(2-methoxypyridin-4-yl)methyl]amino}methyl)-1-cyclopropyl-6,7-difluoro-1,4-dihydroquinolin-4-one hydrochloride]	< 1 µM	+++ (+++=ΔTm ≥20° C.)	< 1 µM	efficacious				responded prominently	efficacious	one			
Cc1ccc(N2CCC[C@H](N(Cc3ccnc(C)c3)Cc3cn(C4CC4)c4cc(N5CC[C@H](N)C(F)(F)C5)c(F)cc4c3=O)C2)cn1.Cl (single isomer, unassigned) [Example 57]		+++ (+++=ΔTm ≥20° C.)						responded prominently	moderately efficacious		minimal tumor growth delay	full efficacious	one
Cc1cc(CN(Cc2cn(C)c3ccccc3c2=O)[C@H]2CCCN(c3ccc(N)nc3)C2)ccn1 [Example 2, 3-({[(3S)-1-(6-Aminopyridin-3-yl)piperidin-3-yl][(2-methylpyridin-4-yl)methyl]amino}methyl)-1-methyl-1,4-dihydroquinolin-4-one]	< 1 µM	+++ (+++=ΔTm ≥20° C.)	< 1 µM										
Cc1ccc(N2CCC[C@H](N(Cc3ccnc(C)c3)Cc3cn(C4CC4)c4cc(NCCN(C)C)c(F)cc4c3=O)C2)cn1 [Example 9, 1-Cyclopropyl-7-{[2-(dimethylamino)ethyl]amino}-6-fluoro-3-({[(3S)-1-(6-methylpyridin-3-yl)piperidin-3-yl][(2-methylpyridin-4-yl)methyl]amino}methyl)-1,4-dihydroquinolin-4-one]	< 1 µM	+++ (+++=ΔTm ≥20° C.)	< 1 µM										

Reference: patent US12643879B2, “Functionalized heterocyclic compounds as modulators of stimulator of interferon genes (STING)” (RYVU THERAPEUTICS S.A., priority 2019, dated 2026)
